Test results taken from patent US10986838B2, “Herbicides” (SYNGENTA PARTICIPATIONS AG, priority 2016, dated 2021).

Columns and labels:
Type in all cases: in vivo
[1] = test system: Alopecurus myosuroides (ALOMY); experiment: Pre-emergence herbicidal activity (B1); conditions: Test 1a, 1000 g/ha, evaluated after 13 days, 5=total damage to plant, 0=no damage to plant
Experimental: (§1) B1 Pre-Emergence Herbicidal Activity Seeds of a variety of test species were sown in standard soil in pots: Triticum aestivium (TRZAW), Avena fatua (AVEFA), Alopecurus myosuroides (ALOMY), Echinochloa crus-galli (ECHCG), Lolium perenne (LOLPE), Zea Mays (ZEAMX), Abutilon theophrasti (ABUTH), Amaranthus retroflexus (AMARE) and Setaria faberi (SETFA). After cultivation for one day (pre-emergence) under controlled conditions in a glasshouse (at 24/16° C., day/night; 14 hours light; 65% humidity), the plants were sprayed with an aqueous spray solution derived from the formulation of the technical active ingredient in acetone/water (50:50) solution containing 0.5% Tween 20 (polyoxyethelyene sorbitan monolaurate, CAS RN 9005-64-5). The test plants were then grown in a glasshouse under controlled conditions (at 24/16° C., day/night; 14 hours light; 65% humidity) and watered twice daily. After 13 days, the test was evaluated (5=total damage to plant; 0=no damage to plant). Tables B1a and B1b Control of Weed Species by Compound of Formula (I) after Pre-Emergence Application

[2] = test system: Triticum aestivium (TRZAW); experiment: Pre-emergence herbicidal activity (B1); conditions: Test 1a, 1000 g/ha, evaluated after 13 days, 5=total damage to plant, 0=no damage to plant
Experimental: as §1

Avena fatua (AVEFA) [3] = experiment: Pre-emergence herbicidal activity (B1); conditions: Test 1a, 1000 g/ha, evaluated after 13 days, 5=total damage to plant, 0=no damage to plant
Experimental: as §1

Setaria faberi (SETFA) [4] = experiment: Pre-emergence herbicidal activity (B1); conditions: Test 1a, 1000 g/ha, evaluated after 13 days, 5=total damage to plant, 0=no damage to plant
Experimental: as §1

Lolium perenne (LOLPE) [5] = experiment: Pre-emergence herbicidal activity (B1); conditions: Test 1a, 1000 g/ha, evaluated after 13 days, 5=total damage to plant, 0=no damage to plant
Experimental: as §1

[6] = test system: Echinochloa crus-galli (ECHCG); experiment: Pre-emergence herbicidal activity (B1); conditions: Test 1a, 1000 g/ha, evaluated after 13 days, 5=total damage to plant, 0=no damage to plant
Experimental: as §1

[7] = test system: Alopecurus myosuroides (ALOMY); experiment: Post-emergence herbicidal activity (B2); conditions: Test B2a, 1000 g/ha, evaluated after 13 days, 5=total damage to plant, 0=no damage to plant
Experimental: (§2) B2 Post-Emergence Herbicidal Activity Seeds of a variety of test species were sown in standard soil in pots: Triticum aestivium (TRZAW), Avena fatua (AVEFA), Alopecurus myosuroides (ALOMY), Echinochloa crus-galli (ECHCG), Lolium perenne (LOLPE), Zea Mays (ZEAMX), Abutilon theophrasti (ABUTH), Amaranthus retroflexus (AMARE) and Setaria faberi (SETFA). After 8 days cultivation (post-emergence) under controlled conditions in a glasshouse (at 24/16° C., day/night; 14 hours light; 65% humidity), the plants were sprayed with an aqueous spray solution derived from the formulation of the technical active ingredient in acetone/water (50:50) solution containing 0.5% Tween 20 (polyoxyethelyene sorbitan monolaurate, CAS RN 9005-64-5). The test plants were then grown in a glasshouse under controlled conditions (at 24/16° C., day/night; 14 hours light; 65% humidity) and watered twice daily. After 13 days, the test was evaluated (5=total damage to plant; 0=no damage to plant). Tables B2a and B2b Control of Weed Species by Compound of Formula (I) after Post-Emergence Application

[8] = test system: Triticum aestivium (TRZAW); experiment: Post-emergence herbicidal activity (B2); conditions: Test B2a, 1000 g/ha, evaluated after 13 days, 5=total damage to plant, 0=no damage to plant
Experimental: as §2

Avena fatua (AVEFA) [9] = experiment: Post-emergence herbicidal activity (B2); conditions: Test B2a, 1000 g/ha, evaluated after 13 days, 5=total damage to plant, 0=no damage to plant
Experimental: as §2

Setaria faberi (SETFA) [10] = experiment: Post-emergence herbicidal activity (B2); conditions: Test B2a, 1000 g/ha, evaluated after 13 days, 5=total damage to plant, 0=no damage to plant
Experimental: as §2

Lolium perenne (LOLPE) [11] = experiment: Post-emergence herbicidal activity (B2); conditions: Test B2a, 1000 g/ha, evaluated after 13 days, 5=total damage to plant, 0=no damage to plant
Experimental: as §2

[12] = test system: Echinochloa crus-galli (ECHCG); experiment: Post-emergence herbicidal activity (B2); conditions: Test B2a, 1000 g/ha, evaluated after 13 days, 5=total damage to plant, 0=no damage to plant
Experimental: as §2

Structure (SMILES)	ALOMY damage score [1]	TRAZW damage score [2]	AVEFA damage score (Avena fatua (AVEFA) [3])	SETFA damage score (Setaria faberi (SETFA) [4])	LOLPE damage score (Lolium perenne (LOLPE) [5])	ECHCG damage score [6]	ALOMY damage score [7]	TRAZW damage score [8]	AVEFA damage score (Avena fatua (AVEFA) [9])	SETFA damage score (Setaria faberi (SETFA) [10])	LOLPE damage score (Lolium perenne (LOLPE) [11])	ECHCG damage score [12]
CNc1ccc(-c2cncc(C#N)c2)nc1C(F)(F)F [Compound A1]	0	0	1	4	1	1	0	2	3	5	2	3
N#Cc1cncc(-c2ccc(N)c(C(F)(F)F)n2)c1 [Compound A2]	0	0	0	4	1	2	1	0	3	5	2	4
Nc1ccc(-c2cncc(Cl)c2)nc1C(F)(F)F [Compound A3]	0	0	1	5	1	3	1	0	3	4	2	3
Cc1nc(-c2cncc(OC(F)F)c2)ccc1N [Compound A4]	0	0	0	2	1	1	1	1	3	4	1	2
CN(C)c1ccc(-c2cncc(F)c2)nc1C(F)(F)F [Compound A38, 6-(5-fluoro-3-pyridyl)-N,N-dimethyl-2-(trifluoromethyl)pyridin-3-amine]	0	0	2	5	0	5	1	1	4	5	2	5
Fc1cncc(-c2ccc(N3CCOCC3)c(C(F)(F)F)n2)c1 [Compound A39, 4-[6-(5-fluoro-3-pyridyl)-2-(trifluoromethyl)-3-pyridyl]morpholine]	0	0	0	3	0	3	0	0	2	4	2	4
Fc1cncc(-c2ccc(N3CCCC3)c(C(F)(F)F)n2)c1 [Compound A40]	1	0	1	4	1	4	0	0	3	5	2	5
COC(=O)c1nc(-c2cncc(F)c2)ccc1N [Compound A41]	0	0	0	2	0	2	0	0	1	2	0	2
CCCCCCNc1ccc(-c2cncc(F)c2)nc1C(F)(F)F [Compound A42]	0	0	2	5	1	4	1	1	3	5	2	5
COc1nc(-c2cncc(F)c2)ccc1N [Compound A43]	0	0	0	1	1	0	0	0	1	2	1	1
N#Cc1nc(-c2cncnc2)ccc1N [Compound A44]	0	0	1	5	2	3	0	0	2	4	1	3
Fc1cncc(-c2ccc(NC3CCCCC3)c(C(F)(F)F)n2)c1 [Compound A45]	0		1	4	0	3	0	0	2	4	1	2
Fc1cncc(-c2ccc(NC3CC3)c(C(F)(F)F)n2)c1 [Compound A46]	0	0	1	4	0	2	1	1	3	4	2	4
CCCNc1ccc(-c2cncc(F)c2)nc1C(F)(F)F [Compound A47]	0	0	1	4	1	3	0	2	2	5	2	4
CCCN(CCC)c1ccc(-c2cncc(F)c2)nc1C(F)(F)F [Compound A48]	0	0	0	4	0	4	0	1	3	5	2	4
Fc1cncc(-c2ccc(NCCc3ccccc3)c(C(F)(F)F)n2)c1 [Compound A49]	0	0	1	5	1	3	0	0	3	5	3	3
